# Source: patent US10364247B2, “Preparation and use of novel protein kinase inhibitors” (Ruijin Hospital Affiliated to Shanghai Jiao Tong University …, priority 2015, dated 2019)
# Columns and labels:
# Assay in all cases: KINOMEscan competition binding
# RET = RET (Homo sapiens, UniProt P07949); conditions: read-out: Percent Control
# Procedure, shortened: (§1)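 Read-out is % Ctrl (lower = stronger hit) from a single 10 μM primary screen in which the compound competes with an immobilized active-site ligand.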
# BMX = BMX (Homo sapiens, UniProt P51813); conditions: read-out: Percent Control
# Procedure, shortened: as §1
# [1] = target: ABL1(M351T)-phosphorylated (Homo sapiens, UniProt P00519, M351T); conditions: read-out: Percent Control
# Procedure, shortened: as §1
# EPHA6 = EPHA6 (Homo sapiens, UniProt Q9UF33); conditions: read-out: Percent Control
# Procedure, shortened: as §1
# MERTK = target: T1, MERTK (Homo sapiens, UniProt Q12866); conditions: read-out: Percent Control
# T1 construct: purchased KINOMEscan (screening service)
# Procedure, shortened: as §1
# SRMS = SRMS (Homo sapiens, UniProt Q9H3Y6); conditions: read-out: Percent Control
# Procedure, shortened: as §1
# EGFR(L861Q) = EGFR(L861Q) (Homo sapiens, UniProt P00533, L861Q); conditions: read-out: Percent Control
# Procedure, shortened: as §1
# EGFR(G719C) = EGFR(G719C) (Homo sapiens, UniProt P00533, G719C); conditions: read-out: Percent Control
# Procedure, shortened: as §1
# YSK4 = YSK4 (Homo sapiens, UniProt Q56UN5); conditions: read-out: Percent Control
# Procedure, shortened: as §1
# [2] = target: T2, JAK1(JH1domain-catalytic) (Homo sapiens, UniProt P23458); conditions: read-out: Percent Control
# T2 construct: JAK1(JH1domain-catalytic)
# Procedure, shortened: as §1
# EGFR = target: T3, EGFR (Homo sapiens, UniProt P00533); conditions: read-out: Percent Control
# T3 construct: purchased KINOMEscan (panel service)
# Procedure, shortened: as §1
# MINK = MINK (Homo sapiens, UniProt Q8N4C8); conditions: MINK (Entrez MINK1), read-out: Percent Control
# Procedure, shortened: as §1
# RET(V804M) = target: T4, RET(V804M) (Homo sapiens, UniProt P07949, V804M); conditions: read-out: Percent Control
# T4 construct: purchased KINOMEscan (panel service)
# Procedure, shortened: as §1
# TRKC = target: T5, TRKC (Homo sapiens, UniProt Q16288); conditions: TRKC (Entrez NTRK3), read-out: Percent Control
# T5 construct: purchased KINOMEscan (screening service)
# Procedure, shortened: as §1
# EPHA2 = EPHA2 (Homo sapiens, UniProt P29317); conditions: read-out: Percent Control
# Procedure, shortened: as §1
# BLK = BLK (Homo sapiens, UniProt P51451); conditions: read-out: Percent Control
# Procedure, shortened: as §1
# RAF1 = target: T6, RAF1 (Homo sapiens, UniProt P04049); conditions: read-out: Percent Control
# T6 construct: purchased KINOMEscan (screening service)
# Procedure, shortened: as §1
# TXK = target: T7, TXK (Homo sapiens, UniProt P42681); conditions: read-out: Percent Control
# T7 construct: purchased KINOMEscan (panel service)
# Procedure, shortened: as §1
# [3] = target: T8, ABL1(H396P)-phosphorylated (Homo sapiens, UniProt P00519, H396P); conditions: read-out: Percent Control
# T8 construct: purchased KINOMEscan (panel service)
# Procedure, shortened: as §1
# TNIK = TNIK (Homo sapiens, UniProt Q9UKE5); conditions: read-out: Percent Control
# Procedure, shortened: as §1
# CSK = CSK (Homo sapiens, UniProt P41240); conditions: read-out: Percent Control
# Procedure, shortened: as §1
# RIPK1 = target: T9, RIPK1 (Homo sapiens, UniProt Q13546); conditions: read-out: Percent Control
# T9 construct: purchased KINOMEscan (screening platform)
# Procedure, shortened: as §1
# [4] = target: T10, RSK4(Kin.Dom.2-C-terminal) (Homo sapiens, UniProt Q9UK32); conditions: RSK4(Kin.Dom.2-C-terminal) (Entrez RPS6KA6), read-out: Percent Control
# T10 construct: RSK4(Kin.Dom.2-C-terminal)
# Procedure, shortened: as §1
# EGFR(L858R) = target: T11, EGFR(L858R) (Homo sapiens, UniProt P00533, L858R); conditions: read-out: Percent Control
# T11 construct: purchased KINOMEscan (panel service)
# Procedure, shortened: as §1
# EPHA5 = EPHA5 (Homo sapiens, UniProt P54756); conditions: read-out: Percent Control
# Procedure, shortened: as §1
# EPHA4 = EPHA4 (Homo sapiens, UniProt P54764); conditions: read-out: Percent Control
# Procedure, shortened: as §1
# WNK3 = target: T12, WNK3 (Homo sapiens, UniProt Q9BYP7); conditions: read-out: Percent Control
# T12 construct: purchased KINOMEscan (screening service)
# Procedure, shortened: as §1
# MAP3K3 = MAP3K3 (Homo sapiens, UniProt Q99759); conditions: read-out: Percent Control
# Procedure, shortened: as §1
# SLK = SLK (Homo sapiens, UniProt Q9H2G2); conditions: read-out: Percent Control
# Procedure, shortened: as §1
# TRKB = target: T13, TRKB (Homo sapiens, UniProt Q16620); conditions: TRKB (Entrez NTRK2), read-out: Percent Control
# T13 construct: purchased KINOMEscan (screening service)
# Procedure, shortened: as §1
# TEC = TEC (Homo sapiens, UniProt P42680); conditions: read-out: Percent Control
# Procedure, shortened: as §1
# IKK-beta = target: T14, IKK-beta (Homo sapiens, UniProt O14920); conditions: IKK-beta (Entrez IKBKB), read-out: Percent Control
# T14 construct: purchased KINOMEscan (screening service)
# Procedure, shortened: as §1
# [5] = target: T15, JAK2(JH1domain-catalytic) (Homo sapiens, UniProt O60674); conditions: read-out: Percent Control
# T15 construct: JAK2(JH1domain-catalytic)
# Procedure, shortened: as §1
# PDGFRA = PDGFRA (Homo sapiens, UniProt P16234); conditions: read-out: Percent Control
# Procedure, shortened: as §1
# KIT(V559D) = KIT(V559D) (Homo sapiens, UniProt P10721, V559D); conditions: read-out: Percent Control
# Procedure, shortened: as §1
# [6] = target: ABL1(Q252H)-phosphorylated (Homo sapiens, UniProt P00519, Q252H); conditions: read-out: Percent Control
# Procedure, shortened: as §1
# EGFR(L861Q), sequence (P00533 25-1210 L861Q): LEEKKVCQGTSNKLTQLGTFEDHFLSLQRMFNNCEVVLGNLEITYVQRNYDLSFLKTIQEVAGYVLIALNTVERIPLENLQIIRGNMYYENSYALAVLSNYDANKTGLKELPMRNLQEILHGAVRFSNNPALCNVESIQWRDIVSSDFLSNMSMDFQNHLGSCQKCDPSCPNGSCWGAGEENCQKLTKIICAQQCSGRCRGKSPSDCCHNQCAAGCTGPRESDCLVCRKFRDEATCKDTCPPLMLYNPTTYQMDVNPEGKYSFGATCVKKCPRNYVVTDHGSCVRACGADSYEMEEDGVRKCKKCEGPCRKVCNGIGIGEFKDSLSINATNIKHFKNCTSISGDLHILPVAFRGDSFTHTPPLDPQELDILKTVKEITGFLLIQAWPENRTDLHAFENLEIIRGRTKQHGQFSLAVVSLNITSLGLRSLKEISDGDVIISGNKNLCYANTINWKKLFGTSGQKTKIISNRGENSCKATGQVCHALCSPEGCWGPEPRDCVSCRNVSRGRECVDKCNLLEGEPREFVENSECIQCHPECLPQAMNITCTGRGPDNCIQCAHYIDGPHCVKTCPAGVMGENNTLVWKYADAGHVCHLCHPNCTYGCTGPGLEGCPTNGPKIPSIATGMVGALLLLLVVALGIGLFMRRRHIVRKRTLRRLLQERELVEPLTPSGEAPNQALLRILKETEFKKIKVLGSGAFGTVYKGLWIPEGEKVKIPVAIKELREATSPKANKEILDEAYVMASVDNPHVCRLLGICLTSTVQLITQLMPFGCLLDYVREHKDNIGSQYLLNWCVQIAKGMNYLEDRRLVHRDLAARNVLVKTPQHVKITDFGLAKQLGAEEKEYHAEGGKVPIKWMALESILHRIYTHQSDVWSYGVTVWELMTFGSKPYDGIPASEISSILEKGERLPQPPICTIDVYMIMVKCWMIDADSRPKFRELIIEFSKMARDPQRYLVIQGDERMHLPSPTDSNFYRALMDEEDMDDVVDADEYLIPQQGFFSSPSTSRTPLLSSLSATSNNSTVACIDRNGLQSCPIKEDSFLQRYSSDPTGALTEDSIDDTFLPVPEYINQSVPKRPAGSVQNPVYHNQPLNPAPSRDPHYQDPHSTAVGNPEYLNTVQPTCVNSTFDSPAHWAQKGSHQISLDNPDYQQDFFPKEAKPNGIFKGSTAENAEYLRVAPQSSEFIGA
# T1 sequence (Q12866 21-999): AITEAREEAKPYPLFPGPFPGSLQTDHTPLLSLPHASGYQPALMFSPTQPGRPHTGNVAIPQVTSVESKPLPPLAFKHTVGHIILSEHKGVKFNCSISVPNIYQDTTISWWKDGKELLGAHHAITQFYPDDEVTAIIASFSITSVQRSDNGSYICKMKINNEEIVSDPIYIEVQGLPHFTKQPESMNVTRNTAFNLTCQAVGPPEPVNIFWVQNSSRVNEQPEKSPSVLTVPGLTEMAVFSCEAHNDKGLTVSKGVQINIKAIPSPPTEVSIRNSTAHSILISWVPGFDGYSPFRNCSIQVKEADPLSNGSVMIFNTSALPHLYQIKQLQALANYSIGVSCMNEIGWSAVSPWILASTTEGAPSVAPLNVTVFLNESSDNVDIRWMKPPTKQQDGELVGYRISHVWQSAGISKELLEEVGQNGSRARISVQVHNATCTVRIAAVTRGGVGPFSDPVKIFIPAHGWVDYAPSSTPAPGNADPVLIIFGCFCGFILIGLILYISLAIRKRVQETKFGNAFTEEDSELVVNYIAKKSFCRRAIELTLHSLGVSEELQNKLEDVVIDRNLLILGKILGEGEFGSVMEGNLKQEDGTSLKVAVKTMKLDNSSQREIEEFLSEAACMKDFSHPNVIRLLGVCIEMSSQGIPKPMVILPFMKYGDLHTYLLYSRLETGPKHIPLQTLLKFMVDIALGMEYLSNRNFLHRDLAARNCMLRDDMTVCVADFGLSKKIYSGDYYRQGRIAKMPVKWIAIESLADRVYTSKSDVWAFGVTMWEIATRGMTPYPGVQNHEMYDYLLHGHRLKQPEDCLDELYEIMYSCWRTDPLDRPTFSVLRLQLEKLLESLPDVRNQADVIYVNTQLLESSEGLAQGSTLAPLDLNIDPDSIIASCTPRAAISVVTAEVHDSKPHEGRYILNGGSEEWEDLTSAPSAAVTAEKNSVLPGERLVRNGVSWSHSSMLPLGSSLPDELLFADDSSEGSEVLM
# CSK, sequence (P41240 whole entry): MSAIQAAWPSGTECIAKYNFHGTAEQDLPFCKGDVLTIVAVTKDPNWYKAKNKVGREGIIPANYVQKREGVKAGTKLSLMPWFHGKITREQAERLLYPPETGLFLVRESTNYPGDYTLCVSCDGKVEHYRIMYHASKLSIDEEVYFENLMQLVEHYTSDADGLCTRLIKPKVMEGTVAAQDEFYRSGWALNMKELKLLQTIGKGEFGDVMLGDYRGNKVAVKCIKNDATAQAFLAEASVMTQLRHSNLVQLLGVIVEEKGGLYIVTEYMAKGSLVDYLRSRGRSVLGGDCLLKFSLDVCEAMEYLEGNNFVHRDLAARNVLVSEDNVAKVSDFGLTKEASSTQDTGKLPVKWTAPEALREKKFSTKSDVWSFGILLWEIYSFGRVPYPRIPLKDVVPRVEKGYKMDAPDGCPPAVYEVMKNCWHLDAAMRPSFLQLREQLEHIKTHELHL
# EPHA6, sequence (Q9UF33 23-1036): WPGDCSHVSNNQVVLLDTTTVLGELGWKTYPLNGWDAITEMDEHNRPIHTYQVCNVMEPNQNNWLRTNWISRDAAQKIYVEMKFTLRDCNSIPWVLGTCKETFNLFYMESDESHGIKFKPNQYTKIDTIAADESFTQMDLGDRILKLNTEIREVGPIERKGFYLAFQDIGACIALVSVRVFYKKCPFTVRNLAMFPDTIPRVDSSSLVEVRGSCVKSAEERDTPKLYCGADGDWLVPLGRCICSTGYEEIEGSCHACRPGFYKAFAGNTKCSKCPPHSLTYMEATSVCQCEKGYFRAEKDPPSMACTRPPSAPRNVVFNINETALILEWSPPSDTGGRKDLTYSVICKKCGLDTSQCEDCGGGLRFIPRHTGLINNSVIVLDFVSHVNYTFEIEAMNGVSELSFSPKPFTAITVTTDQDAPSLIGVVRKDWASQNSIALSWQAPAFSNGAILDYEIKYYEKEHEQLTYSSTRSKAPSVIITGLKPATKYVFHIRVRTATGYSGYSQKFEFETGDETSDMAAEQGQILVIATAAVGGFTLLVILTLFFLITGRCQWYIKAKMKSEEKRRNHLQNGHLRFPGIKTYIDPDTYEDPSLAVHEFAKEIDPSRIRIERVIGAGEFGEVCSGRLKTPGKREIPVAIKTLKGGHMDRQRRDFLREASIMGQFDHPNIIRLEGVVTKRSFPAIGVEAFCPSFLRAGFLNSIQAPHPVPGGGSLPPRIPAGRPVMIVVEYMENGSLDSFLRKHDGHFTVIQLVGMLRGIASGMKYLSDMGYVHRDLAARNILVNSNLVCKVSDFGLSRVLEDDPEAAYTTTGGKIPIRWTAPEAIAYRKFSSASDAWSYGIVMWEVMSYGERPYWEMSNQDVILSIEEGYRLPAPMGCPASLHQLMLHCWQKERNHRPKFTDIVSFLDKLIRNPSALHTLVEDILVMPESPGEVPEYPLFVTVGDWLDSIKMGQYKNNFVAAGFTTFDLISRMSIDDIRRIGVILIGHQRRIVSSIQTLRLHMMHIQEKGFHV
# T10 sequence (Q9UK32 426-683 limits assumed): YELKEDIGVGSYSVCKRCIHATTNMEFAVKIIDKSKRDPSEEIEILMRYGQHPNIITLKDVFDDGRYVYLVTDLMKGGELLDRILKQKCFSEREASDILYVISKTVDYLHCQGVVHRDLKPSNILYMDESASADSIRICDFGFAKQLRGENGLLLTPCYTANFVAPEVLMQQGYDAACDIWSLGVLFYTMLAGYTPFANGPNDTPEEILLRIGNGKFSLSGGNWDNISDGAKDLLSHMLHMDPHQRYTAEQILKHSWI
# T7 sequence (P42681 whole entry): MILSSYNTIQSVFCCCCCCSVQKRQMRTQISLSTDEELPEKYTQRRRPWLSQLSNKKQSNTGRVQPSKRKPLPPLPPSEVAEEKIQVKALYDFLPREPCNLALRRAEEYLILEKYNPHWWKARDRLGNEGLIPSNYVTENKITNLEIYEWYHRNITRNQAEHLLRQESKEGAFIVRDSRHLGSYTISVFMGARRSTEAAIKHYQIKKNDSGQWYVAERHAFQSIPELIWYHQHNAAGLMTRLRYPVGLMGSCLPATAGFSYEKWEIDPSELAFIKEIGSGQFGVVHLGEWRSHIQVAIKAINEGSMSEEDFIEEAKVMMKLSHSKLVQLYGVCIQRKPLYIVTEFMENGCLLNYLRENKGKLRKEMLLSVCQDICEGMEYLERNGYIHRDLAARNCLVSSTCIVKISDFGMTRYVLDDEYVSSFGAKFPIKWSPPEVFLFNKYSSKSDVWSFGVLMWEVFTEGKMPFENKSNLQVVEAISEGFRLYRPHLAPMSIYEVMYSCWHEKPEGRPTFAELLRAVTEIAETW
# MAP3K3, sequence (Q99759 whole entry): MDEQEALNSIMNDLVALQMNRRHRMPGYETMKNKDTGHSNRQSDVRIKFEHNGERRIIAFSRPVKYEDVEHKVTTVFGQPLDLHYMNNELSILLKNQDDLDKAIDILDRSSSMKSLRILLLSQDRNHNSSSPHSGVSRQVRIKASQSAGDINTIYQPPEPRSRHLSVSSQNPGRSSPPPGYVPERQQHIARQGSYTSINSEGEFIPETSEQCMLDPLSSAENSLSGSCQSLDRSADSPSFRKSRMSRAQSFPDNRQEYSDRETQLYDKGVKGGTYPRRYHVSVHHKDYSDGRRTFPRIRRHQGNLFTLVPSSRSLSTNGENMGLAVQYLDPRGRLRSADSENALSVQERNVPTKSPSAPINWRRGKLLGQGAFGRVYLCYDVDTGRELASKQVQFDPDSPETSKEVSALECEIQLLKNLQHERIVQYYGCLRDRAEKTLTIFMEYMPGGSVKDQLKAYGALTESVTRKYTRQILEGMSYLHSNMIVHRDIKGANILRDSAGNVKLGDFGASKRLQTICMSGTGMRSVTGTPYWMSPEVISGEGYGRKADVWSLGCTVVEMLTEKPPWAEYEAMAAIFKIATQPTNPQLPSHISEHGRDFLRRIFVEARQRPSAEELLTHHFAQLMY
smiles,measurement,setting,value
"Cc1ccc(Nc2ncc3c(n2)N(C)CN(c2cc(NC(=O)c4cccc(C(F)(F)F)c4)ccc2C)C3)cn1 [IA-9, N-(4-methyl-3-(1-methyl-7-((6-methylpyridin-3-yl)amino)-1,4-dihydropyrimido[4,5-d]pyrimidin-3(2H)-yl)phenyl)-3-(trifluoromethyl)benzamide]",remaining binding at 10 µM,RET,0%
same,remaining binding at 10 µM,BMX,0.75%
same,remaining binding at 10 µM,[1],1.2%
same,remaining binding at 10 µM,EPHA6,0%
same,remaining binding at 10 µM,MERTK,7%
same,remaining binding at 10 µM,SRMS,0.95%
same,remaining binding at 10 µM,EGFR(L861Q),0%
same,remaining binding at 10 µM,EGFR(G719C),0%
same,remaining binding at 10 µM,YSK4,0.3%
same,remaining binding at 10 µM,[2],2%
same,remaining binding at 10 µM,EGFR,0.05%
same,remaining binding at 10 µM,MINK,3.6%
same,remaining binding at 10 µM,RET(V804M),0%
same,remaining binding at 10 µM,TRKC,7.2%
same,remaining binding at 10 µM,EPHA2,0.2%
same,remaining binding at 10 µM,BLK,0.3%
same,remaining binding at 10 µM,RAF1,12%
same,remaining binding at 10 µM,TXK,0%
same,remaining binding at 10 µM,[3],0.15%
same,remaining binding at 10 µM,TNIK,4.8%
same,remaining binding at 10 µM,CSK,0.9%
same,remaining binding at 10 µM,RIPK1,28%
same,remaining binding at 10 µM,[4],2.6%
same,remaining binding at 10 µM,EGFR(L858R),0.05%
same,remaining binding at 10 µM,EPHA5,0.9%
same,remaining binding at 10 µM,EPHA4,0%
same,remaining binding at 10 µM,WNK3,18%
same,remaining binding at 10 µM,MAP3K3,1.3%
same,remaining binding at 10 µM,SLK,6.1%
same,remaining binding at 10 µM,TRKB,10%
same,remaining binding at 10 µM,TEC,0.55%
same,remaining binding at 10 µM,IKK-beta,14%
same,remaining binding at 10 µM,[5],0.35%
same,remaining binding at 10 µM,PDGFRA,1.6%
same,remaining binding at 10 µM,KIT(V559D),0%
same,remaining binding at 10 µM,[6],0.2%
